Positions of bridges follow the written chain, without caps; N, C: chain ends. Non-standard residues stand in square brackets, D forms with d. Residues, ends and D or L forms follow the SMILES beside them. *: point of attachment. Cbz = O=C(OCc1ccccc1)*; Dap = NC[C@H](N)C(=O)O
How the values were obtained:
[1] = target: T1, Neuromedin-K receptor (Homo sapiens, UniProt P29371); test: Binding affinity towards Tachykinin receptor 3 using [125I]-[Mephe7] NKB as radioligand
T1 sequence (P29371 whole entry): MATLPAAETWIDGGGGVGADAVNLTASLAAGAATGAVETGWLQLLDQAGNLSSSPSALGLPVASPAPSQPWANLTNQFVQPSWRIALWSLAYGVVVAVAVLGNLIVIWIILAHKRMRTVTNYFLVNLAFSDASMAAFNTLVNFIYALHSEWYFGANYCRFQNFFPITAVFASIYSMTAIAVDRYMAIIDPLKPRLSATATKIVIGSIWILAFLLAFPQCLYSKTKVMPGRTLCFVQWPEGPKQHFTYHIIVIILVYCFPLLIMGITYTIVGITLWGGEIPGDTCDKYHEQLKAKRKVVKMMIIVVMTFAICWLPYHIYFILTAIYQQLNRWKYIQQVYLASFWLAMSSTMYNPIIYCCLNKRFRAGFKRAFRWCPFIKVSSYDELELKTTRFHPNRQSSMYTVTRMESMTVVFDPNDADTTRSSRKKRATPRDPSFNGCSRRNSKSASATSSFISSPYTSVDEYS

[2] = target: T2, Substance-K receptor (Mesocricetus auratus, UniProt P51144); test: Binding affinity towards Tachykinin receptor 2 using [125I]iodohistidyl-NKA (0.1 nM)) as radioligand; parameters: species or system Cricetulus griseus
T2 sequence (P51144 whole entry): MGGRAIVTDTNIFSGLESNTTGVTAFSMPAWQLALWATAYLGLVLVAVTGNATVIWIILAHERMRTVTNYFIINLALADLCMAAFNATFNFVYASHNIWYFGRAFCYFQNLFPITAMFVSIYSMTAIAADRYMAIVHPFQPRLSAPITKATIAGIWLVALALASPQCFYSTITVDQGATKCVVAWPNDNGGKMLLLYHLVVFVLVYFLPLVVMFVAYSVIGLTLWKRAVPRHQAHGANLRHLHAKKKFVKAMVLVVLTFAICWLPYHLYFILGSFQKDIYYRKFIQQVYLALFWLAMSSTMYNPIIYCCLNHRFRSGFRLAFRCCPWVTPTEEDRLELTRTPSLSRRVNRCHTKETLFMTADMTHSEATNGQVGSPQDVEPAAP

IC50 [1] [µM]	IC50 [2] [µM]	Compound
9.4		O=C(Cc1ccccc1)N1CCC(Cc2ccccc2)C1 (stereo unspecified)
	> 10	O=C(Cc1c[nH]c2ccccc12)N1CCC(Cc2ccccc2)C1 (stereo unspecified)
9.3	5.2	NC(=O)[C@H](Cc1ccccc1)NC(=O)[C@H](Cc1c[nH]c2ccccc12)NC(=O)OCc1ccccc1 (Cbz-Trp-Phe-NH2)
	> 10	CSCC[C@@H]1NC(=O)[C@H](CC(C)C)NC(=O)[C@@H]2CNC(=O)C[C@H](NC1=O)C(=O)N[C@@H](Cc1c[nH]c3ccccc13)C(=O)N[C@@H](Cc1ccccc1)C(=O)N2 (cyclo(DWF[Dap]LM); lactam 1-4)
	19.8	Ac-LMQWFG-OH
